Data from US5578622A, “Isothiazole derivatives and their uses” (Asamura Patent Office, priority 1994, dated 1996).

What was measured:
[1] = system: Gibberella fujikuroi ("Bakanae" disease of rice); experiment: Test for rice seed-disinfecting effect; format: in vivo; conditions: Fusarium fujikuroi, 504 h, seed immersion 25° C. 24 hours, three weeks after treatment, read-out: Controlling effect (control of disease), "Bakanae" disease of rice
Description: 2-1 Test for rice seed-disinfecting effect
Unhulled rice infected with Gibberella fujikuroi ("Bakanae" disease of rice) was immersed in a test compound adjusted to 1000 ppm at 25° C. for 24 hours. Water was lightly swished off the seed, which was then sowed and germinated for two days. Three weeks after treatment with the solution containing the compound, the rate of the infected seedlings was examined, and the control of disease was calculated by comparison with that of the untreated plot. The control of disease was shown as a controlling effect on the basis of the following standard.

[2] = system: Pseudoperonospora cubensis; experiment: Test for controlling effect on downy mildew of cucumber; format: in vivo; conditions: 168 h, 200 ppm spray, one day before inoculation, cucumber 2-leaf stage, read-out: Controlling effect (control of disease), Downy mildew of cucumber
Description: 2-2 Test for controlling effect on downy mildew of cucumber (Pseudoperonospora cubensis) A test compound adjusted to 200 ppm was sprayed onto cucumber at the 2-leaf stage cultivated in pots. After one day, the cucumber was inoculated by spraying the zoospore suspension of Pseudoperonospora cubensis. After inoculation, the cucumber was placed in a 25° C.-humid room for 1 day and then in a greenhouse for 6 days. Thus, the cucumber was made to be infected with downy mildew. The control of disease of the test compound is calculated by comparing the degree of infection of each leaf with that in the untreated plot. The control of disease is shown as a controlling effect in the same manner as in Test Example 2-1.

Rhizoctonia solani = experiment: Test for controlling effect on sheath blight of rice; format: in vivo; conditions: 120 h, 200 ppm spray, 24 hours after inoculation, rice 4-leaf stage, five days after inoculation, read-out: Controlling effect (control of disease), Sheath blight of rice
Description: 2-3 Test for controlling effect on sheath blight of rice (Rhizoctonia solani) Rice seedlings at the 4-leaf stage were inoculated with the mycelium of sheath blight of rice (Rhizoctonia solani). After 24 hours, a test medicine solution adjusted to 200 ppm was sprayed onto the seedlings. After air-drying, the seedlings were placed in a humid room for 24 hours where the temperature was kept at 28° C. and humidity was kept at 98%. Thereafter, the seedlings were transferred to a greenhouse, and five days after inoculation, the degree of infected area was examined. The control of disease was calculated by comparison with that in the untreated plot. The control of disease is shown as a controlling effect in the same manner as in Test Example 2-1.

Tyromyces palustris = experiment: Test for wood rotting-preventing effect (mycelium growth inhibition on malt extract agar); format: cell-based; conditions: 28° C.±2° C., 2 to 10 days, read-out: Rotting preventing effect (mycelium growth-inhibitory rate), TYP
Description: (§1) The following fungi were cultured in agar media, respectively, and mycelial disks on the media were stamped out together with the agar using a cork borer of 4 mm in diameter. The resulting mycelial disks on agar were used as an inoculum. Each test compound of 50 ppm was added to a malt extract agar medium and added in parts to Petri dishes. The above prepared inoculum was put on the Petri dishes and cultured at 28° C.±2° C. Two to ten days after inoculation, the diameter of the mycelial disk of each fungus was measured, and the mycelium growth-inhibitory rate was obtained according to the following equation. [formula] The mycelium growth-inhibitory rate (%) is indicated by the following symbols as a fungicidal effect on each fungus, and the results are shown in Table 2. | TYP: Tyromyces palustris

Trichoderma viride = experiment: as above; format: cell-based; conditions: 28° C.±2° C., 2 to 10 days, read-out: Rotting preventing effect (mycelium growth-inhibitory rate), TRV
Description: as §1, with “TRV: Trichoderma viride” for “TYP: Tyromyces palustris”

Aspergillus niger = experiment: as above; format: cell-based; conditions: 28° C.±2° C., 2 to 10 days, read-out: Rotting preventing effect (mycelium growth-inhibitory rate), ASN
Description: as §1, with “ASN: Aspergillus niger” for “TYP: Tyromyces palustris”

Rhizopus nigricans = experiment: as above; format: cell-based; conditions: Rhizopus stolonifer, 28° C.±2° C., 2 to 10 days, read-out: Rotting preventing effect (mycelium growth-inhibitory rate), RHN
Description: as §1, with “RHN: Rhizopus nigricans” for “TYP: Tyromyces palustris”

Row | SMILES | pest or weed control at 1000 ppm [1] [%] | pest or weed control at 200 ppm [2] [%] | pest or weed control at 200 ppm (Rhizoctonia solani) [%] | inhibition at 50 ppm (Tyromyces palustris) [%] | inhibition at 50 ppm (Trichoderma viride) [%] | inhibition at 50 ppm (Aspergillus niger) [%] | inhibition at 50 ppm (Rhizopus nigricans) [%]
1 | C=CCSc1snc(OCC#CI)c1C#N [Compound 8] | 95 to 100 | 95 to 100 | 60 to 79 | – | – | – | –
2 | COCCSc1snc(OCC#CI)c1C#N [Compound 15] | 95 to 100 | 80 to 94 | 80 to 94 | – | – | – | –
3 | N#CCSc1snc(OCC#CI)c1C#N [Compound 17] | 95 to 100 | 95 to 100 | 95 to 100 | – | – | – | –
4 | COC(=O)Sc1snc(OCC#CI)c1C#N [Compound 20] | 80 to 94 | 95 to 100 | 60 to 79 | 95 to 100 | 95 to 100 | 80 to 94 | 60 to 79
5 | CCCCN(C)c1snc(OCC#CI)c1C#N [Compound 32] | 80 to 94 | 95 to 100 | 60 to 79 | – | – | – | –
6 | N#Cc1c(OCC#CI)nsc1N1CCOCC1 [Compound 35] | 80 to 94 | 95 to 100 | 80 to 94 | 95 to 100 | 95 to 100 | 95 to 100 | 80 to 94
7 | C=CC[S+]([O-])c1snc(OCC#CI)c1C#N (centres unmarked) [Compound 47] | 95 to 100 | 80 to 94 | 95 to 100 | – | – | – | –
8 | COc1nsc(SCOCC#CI)c1C#N [Compound 53, 3-methoxy-4-cyano-5-(3-iodo-2-propynyloxymethylthio)isothiazole] | 95 to 100 | 95 to 100 | 95 to 100 | 95 to 100 | 95 to 100 | 95 to 100 | 80 to 94
9 | CC(=O)Oc1nsc(SCOCC#CI)c1C#N [Compound 67] | 80 to 94 | 80 to 94 | 95 to 100 | 95 to 100 | 80 to 94 | 80 to 94 | 95 to 100
10 | CCS(=O)(=O)c1snc(OCCC#CI)c1C#N [Compound 78] | 95 to 100 | 80 to 94 | 95 to 100 | 95 to 100 | 95 to 100 | 95 to 100 | 95 to 100
11 | COc1nsc(OCCC#CI)c1C#N [Compound 80, 3-methoxy-4-cyano-5-(4-iodo-3-butynyloxy)isothiazole] | 95 to 100 | 95 to 100 | 80 to 94 | 95 to 100 | 95 to 100 | 95 to 100 | 95 to 100
12 | CCSc1snc(OCOCC#CI)c1C#N [Compound 86, 3-(3-iodo-2-propynyloxymethyloxy)-4-cyano-5-ethylthioisothiazole] | 95 to 100 | 95 to 100 | 80 to 94 | 95 to 100 | 95 to 100 | 95 to 100 | 95 to 100
13 | CCS(=O)(=O)c1snc(OCOCC#CI)c1C#N [Compound 94] | 95 to 100 | 95 to 100 | 95 to 100 | 95 to 100 | 95 to 100 | 95 to 100 | 95 to 100
14 | CSc1snc(OCOC(C)(C)C#CI)c1C#N [Compound 100, 3-(3-iodo-l,l-dimethyl-2-propynyloxymethyloxy)-4-cyano-5-methylthioisothiazole] | 95 to 100 | 95 to 100 | 95 to 100 | 95 to 100 | 95 to 100 | 80 to 94 | 80 to 94
15 | CC(C)(C#CI)OCOc1nsc(S(C)(=O)=O)c1C#N [Compound 103] | 95 to 100 | 95 to 100 | 95 to 100 | 95 to 100 | 95 to 100 | 95 to 100 | 80 to 94
16 | CSc1snc(OCOC(C)C#CI)c1C#N (centres unmarked) [Compound 110] | 95 to 100 | 95 to 100 | 95 to 100 | 95 to 100 | 95 to 100 | 95 to 100 | 95 to 100
17 | CCOc1snc(OCOC(C)C#CI)c1C#N (centres unmarked) [Compound 114] | 95 to 100 | 95 to 100 | 80 to 94 | – | – | – | –
18 | CC(C#CI)OCOc1nsc(N(C)C)c1C#N (centres unmarked) [Compound 115] | 95 to 100 | 80 to 94 | 95 to 100 | 95 to 100 | 95 to 100 | 95 to 100 | 95 to 100
19 | CC(OCC#CI)Oc1nsc(SC(F)F)c1C#N (centres unmarked) [Compound 122] | 95 to 100 | 95 to 100 | 95 to 100 | 95 to 100 | 95 to 100 | 95 to 100 | 95 to 100
20 | CC(OCC#CI)Sc1snc(OC(F)F)c1C#N (centres unmarked) [Compound 127] | 95 to 100 | 95 to 100 | 95 to 100 | 95 to 100 | 95 to 100 | 95 to 100 | 95 to 100
21 | N#Cc1c(SCOCC#CI)nsc1SCOCC#CI [Compound 140] | 80 to 94 | 95 to 100 | 80 to 94 | – | – | – | –
